Laboratory results published in the CheMixHub viscosity set.
“And” between values parts separate entries of the source, which are not always exact repeats. Equal values may be shown once.

Assay: xn = mol fraction of the nth substance listed

CC(C)C[C@H](N)C(=O)O + O
Details | viscosity
293.15 K, 100 kPa, x1 = 0.000274 | 1.013 mPa·s
293.15 K, 100 kPa, x1 = 0.000645 | 1.038 mPa·s
293.15 K, 100 kPa, x1 = 0.000947 | 1.055 mPa·s
293.15 K, 100 kPa, x1 = 0.00132 | 1.076 mPa·s
293.15 K, 100 kPa, x1 = 0.00136 | 1.04 mPa·s
293.15 K, 100 kPa, x1 = 0.00153 | 1.044 mPa·s
293.15 K, 100 kPa, x1 = 0.00162 | 1.093 mPa·s
293.15 K, 100 kPa, x1 = 0.00172 | 1.048 mPa·s
293.15 K, 100 kPa, x1 = 0.002001 | 1.114 mPa·s
293.15 K, 100 kPa, x1 = 0.00234 | 1.133 mPa·s
298.15 K, 100 kPa, x1 = 0.000274 | 0.9 mPa·s
298.15 K, 100 kPa, x1 = 0.000292 | 0.8985 mPa·s
298.15 K, 100 kPa, x1 = 0.000459 | 0.905 mPa·s
298.15 K, 100 kPa, x1 = 0.000806 | 0.913 mPa·s
298.15 K, 100 kPa, x1 = 0.000995 | 0.917 mPa·s
298.15 K, 100 kPa, x1 = 0.00117 | 0.921 mPa·s
298.15 K, 100 kPa, x1 = 0.00132 | 0.9262 mPa·s
298.15 K, 100 kPa, x1 = 0.00136 | 0.925 mPa·s
298.15 K, 100 kPa, x1 = 0.00153 | 0.929 mPa·s
298.15 K, 100 kPa, x1 = 0.00162 | 0.9344 mPa·s
298.15 K, 100 kPa, x1 = 0.00172 | 0.933 mPa·s
298.15 K, 100 kPa, x1 = 0.002001 | 0.9447 mPa·s
298.15 K, 100 kPa, x1 = 0.00234 | 0.9538 mPa·s
303.15 K, 100 kPa, x1 = 0.000274 | 0.807 mPa·s
303.15 K, 100 kPa, x1 = 0.000292 | 0.8043 mPa·s
303.15 K, 100 kPa, x1 = 0.000459 | 0.811 mPa·s
303.15 K, 100 kPa, x1 = 0.000632 | 0.815 mPa·s
303.15 K, 100 kPa, x1 = 0.000645 | 0.8124 mPa·s
303.15 K, 100 kPa, x1 = 0.000806 | 0.819 mPa·s
303.15 K, 100 kPa, x1 = 0.000947 | 0.8194 mPa·s
303.15 K, 100 kPa, x1 = 0.000995 | 0.823 mPa·s
303.15 K, 100 kPa, x1 = 0.00117 | 0.826 mPa·s
303.15 K, 100 kPa, x1 = 0.00132 | 0.828 mPa·s
303.15 K, 100 kPa, x1 = 0.00136 | 0.83 mPa·s
303.15 K, 100 kPa, x1 = 0.00153 | 0.834 mPa·s
303.15 K, 100 kPa, x1 = 0.00162 | 0.8351 mPa·s
303.15 K, 100 kPa, x1 = 0.00172 | 0.838 mPa·s
303.15 K, 100 kPa, x1 = 0.002001 | 0.8439 mPa·s
303.15 K, 100 kPa, x1 = 0.00234 | 0.8517 mPa·s
303.15 K, 101 kPa, x1 = 0.0004 | 0.804 mPa·s
303.15 K, 101 kPa, x1 = 0.0007 | 0.809 mPa·s
303.15 K, 101 kPa, x1 = 0.001 | 0.817 mPa·s and 0.827 mPa·s
303.15 K, 101 kPa, x1 = 0.0018 | 0.834 mPa·s
305.15 K, 101 kPa, x1 = 0.0003598 | 0.7908 mPa·s
305.15 K, 101 kPa, x1 = 0.0007199 | 0.7974 mPa·s
305.15 K, 101 kPa, x1 = 0.00108 | 0.8054 mPa·s
305.15 K, 101 kPa, x1 = 0.001439 | 0.8126 mPa·s
305.15 K, 101 kPa, x1 = 0.001798 | 0.8203 mPa·s
305.15 K, 101 kPa, x1 = 0.002157 | 0.8283 mPa·s
308.15 K, 100 kPa, x1 = 0.000274 | 0.729 mPa·s
308.15 K, 100 kPa, x1 = 0.000292 | 0.7252 mPa·s
308.15 K, 100 kPa, x1 = 0.000632 | 0.736 mPa·s
308.15 K, 100 kPa, x1 = 0.000645 | 0.7323 mPa·s
308.15 K, 100 kPa, x1 = 0.000806 | 0.74 mPa·s
308.15 K, 100 kPa, x1 = 0.000947 | 0.7384 mPa·s
308.15 K, 100 kPa, x1 = 0.000995 | 0.744 mPa·s
308.15 K, 100 kPa, x1 = 0.00117 | 0.747 mPa·s
308.15 K, 100 kPa, x1 = 0.00132 | 0.7458 mPa·s
308.15 K, 100 kPa, x1 = 0.00153 | 0.755 mPa·s
308.15 K, 100 kPa, x1 = 0.00162 | 0.752 mPa·s
308.15 K, 100 kPa, x1 = 0.00172 | 0.758 mPa·s
308.15 K, 100 kPa, x1 = 0.002001 | 0.7597 mPa·s
308.15 K, 100 kPa, x1 = 0.00234 | 0.7665 mPa·s
308.15 K, 101 kPa, x1 = 0.0007 | 0.731 mPa·s
308.15 K, 101 kPa, x1 = 0.001 | 0.739 mPa·s and 0.746 mPa·s
308.15 K, 101 kPa, x1 = 0.0018 | 0.753 mPa·s
310.15 K, 101 kPa, x1 = 0.0003598 | 0.709 mPa·s
310.15 K, 101 kPa, x1 = 0.0007199 | 0.7151 mPa·s
310.15 K, 101 kPa, x1 = 0.00108 | 0.7218 mPa·s
310.15 K, 101 kPa, x1 = 0.001439 | 0.7272 mPa·s
310.15 K, 101 kPa, x1 = 0.001798 | 0.7334 mPa·s
310.15 K, 101 kPa, x1 = 0.002157 | 0.7401 mPa·s
313.15 K, 100 kPa, x1 = 0.000274 | 0.663 mPa·s
313.15 K, 100 kPa, x1 = 0.000292 | 0.6581 mPa·s
313.15 K, 100 kPa, x1 = 0.000459 | 0.667 mPa·s
313.15 K, 100 kPa, x1 = 0.000632 | 0.67 mPa·s
313.15 K, 100 kPa, x1 = 0.000645 | 0.6643 mPa·s
313.15 K, 100 kPa, x1 = 0.000806 | 0.674 mPa·s
313.15 K, 100 kPa, x1 = 0.000947 | 0.6696 mPa·s
313.15 K, 100 kPa, x1 = 0.00132 | 0.676 mPa·s
313.15 K, 100 kPa, x1 = 0.00162 | 0.6814 mPa·s
313.15 K, 100 kPa, x1 = 0.002001 | 0.688 mPa·s
313.15 K, 100 kPa, x1 = 0.00234 | 0.694 mPa·s
313.15 K, 101 kPa, x1 = 0.0004 | 0.658 mPa·s
313.15 K, 101 kPa, x1 = 0.0007 | 0.663 mPa·s
313.15 K, 101 kPa, x1 = 0.001 | 0.669 mPa·s and 0.677 mPa·s
313.15 K, 101 kPa, x1 = 0.0018 | 0.682 mPa·s
315.15 K, 101 kPa, x1 = 0.0003598 | 0.6544 mPa·s
315.15 K, 101 kPa, x1 = 0.0007199 | 0.6599 mPa·s
315.15 K, 101 kPa, x1 = 0.00108 | 0.6653 mPa·s
315.15 K, 101 kPa, x1 = 0.001439 | 0.6699 mPa·s
315.15 K, 101 kPa, x1 = 0.001798 | 0.6752 mPa·s
315.15 K, 101 kPa, x1 = 0.002157 | 0.6803 mPa·s
318.15 K, 101 kPa, x1 = 0.0007 | 0.605 mPa·s
318.15 K, 101 kPa, x1 = 0.001 | 0.611 mPa·s and 0.618 mPa·s
318.15 K, 101 kPa, x1 = 0.0018 | 0.622 mPa·s
